Two compounds from patent US4341784A, “Naphthyridine derivatives” (priority 1979, dated 1982) can be followed below.

Test [1] relates to Corynebacterium pyogenes C-21. Kind of test: In vitro antibacterial activity (MIC, agar dilution method). The class given is cell-based. Particulars: C21; Corynebacterium pyogenes C-21; agar dilution; read-out: minimum inhibitory concentration (MIC). As to the method:
(§1) The minimum inhibitory concentrations (MIC, μg/ml) of the following compounds in vitro were measured by the agar dilution method of [Chemotherapy, Vol. 22, No. 16, page 1126 (1974)].

The subject of test [2] is Enterobacter cloacae P-2540. Described as above. The class given is cell-based. Particulars: P2540; Enterobacter cloacae P-2540; agar dilution; read-out: minimum inhibitory concentration (MIC). On the procedure: as §1
A general note: In agar dilution the substance is mixed into plates at graded concentrations.

Test [3] has as its system Escherichia coli NIHJ JC-2. The test is described as above. The format is cell-based. As to the method:
as §1

A further test concerns Escherichia coli P-140a. The description is as above. Particulars: P140A; Escherichia coli P-140a; agar dilution; read-out: minimum inhibitory concentration (MIC). The format is cell-based. As to the method: as §1
Test [4] deals with Klebsiella pneumoniae No. 13. The description is as above. The format is cell-based. Particulars: Klebsiella pneumoniae No. 13; agar dilution; read-out: minimum inhibitory concentration (MIC). On the procedure:
as §1

The subject of another test is Proteus mirabilis P-2381. Described as above. Particulars: P2381; Proteus mirabilis P-2381; agar dilution; read-out: minimum inhibitory concentration (MIC). The class given is cell-based. As to the method: as §1
Another test deals with Proteus morganii Kono. The description is as above. The format is cell-based. The settings on record: Morganella morganii; Proteus morganii Kono; agar dilution; read-out: minimum inhibitory concentration (MIC). As to the method: as §1
Test [5] concerns Pseudomonas aeruginosa No. 12. Described as above. The format is cell-based. Particulars: Pseudomonas aeruginosa No. 12; agar dilution; read-out: minimum inhibitory concentration (MIC). As to the method:
as §1

For test [6], the system named is Pseudomonas aeruginosa Tsuchiijima. Described as above. The class given is cell-based. Particulars: Pseudomonas aeruginosa Tsuchiijima; agar dilution; read-out: minimum inhibitory concentration (MIC). On the procedure: as §1
Test [7] relates to Salmonella enteritidis No. 1891. The test is described as above. The format is cell-based. The settings on record: Salmonella enterica; Salmonella enteritidis No. 1891; agar dilution; read-out: minimum inhibitory concentration (MIC). As to the method:
as §1

The test system of test [8] is Salmonella typhimurium S-9. The test is described as above. The class given is cell-based. Particulars: Salmonella enterica; Salmonella typhimurium S-9; agar dilution; read-out: minimum inhibitory concentration (MIC). As to the method: as §1
The test system of test [9] is Serratia marcescens IFO 3736. The test is described as above. Particulars: IFO3736; Serratia marcescens IFO 3736; agar dilution; read-out: minimum inhibitory concentration (MIC). The format is cell-based. On the procedure:
as §1

A further test deals with Shigella flexneri 2a. The test is described as above. The class given is cell-based. The settings on record: read-out: minimum inhibitory concentration (MIC). On the procedure:
as §1

The test system of test [10] is Shigella flexneri 4a P-330. The description is as above. The format is cell-based. Particulars: 4AP330, read-out: minimum inhibitory concentration (MIC). On the procedure: as §1
Test [11] relates to Staphylococcus aureus No. 80. The test is described as above. The format is cell-based. As to the method: as §1
Test [12] relates to Staphylococcus aureus Smith. The description is as above. The format is cell-based. The settings on record: Staphylococcus aureus Smith; agar dilution; read-out: minimum inhibitory concentration (MIC). On the procedure: as §1
The test system of test [13] is Streptococcus faecalis P-2473. The description is as above. The settings on record: Enterococcus faecalis, P2473; Streptococcus faecalis P-2473; agar dilution; read-out: minimum inhibitory concentration (MIC). The class given is cell-based. As to the method:
as §1

For test [14], the system named is Streptococcus pyogenes 65A. Described as above. The settings on record: Streptococcus pyogenes 65A; agar dilution; read-out: minimum inhibitory concentration (MIC). The class given is cell-based. As to the method:
as §1

In test [15] the test system is Staphylococcus aureus No. 50774. Kind of test: In vivo efficacy against systemic infections in mice (intravenous infection). Set-up: species or system male mice (ddY). The settings on record: NO.50774, 336 h, po, twice, about 5 minutes and 6 hours after intravenous infection, observed 14 days. As to the method: (§2) Each of the solutions was orally administered to mice infected with each of test organisms under the conditions described below, and the medium effective doses (ED50) obtained are shown in Table II. Male mice (ddY) weighing about 20 g (1) Staphylococcus aureus No. 50774: Intravenous infection with about 5×10^8 cells per mouse suspended in saline. Twice, about 5 minutes and 6 hours after infection. |Staphylococcus aureus No. 50774 | for 14 days | The numerals in the table show ED50 (mg/kg). ED50 values were | calculated in accordance with the BehrensKaerber method (Arch. Exp. Path. | Pharm., 162, 480 (1931)). | po: oral administration.

Test [16] deals with Streptococcus pyogenes 65-A. Kind of test: In vivo efficacy against systemic infections in mice (intraperitoneal infection). The arrangement: species or system male mice (ddY). The settings on record: 168 h, po, twice, about 5 minutes and 6 hours after intraperitoneal infection, observed 7 days. On the procedure: as §2, with “(2) Streptococcus pyogenes 65-A: Intraperitoneal” for “(1) Staphylococcus aureus No. 50774: Intravenous”, “3×10^7” for “5×10^8”, “barin heart infusion broth.” for “saline.”, “|Streptococcus pyogenes 65-A |Escherichia coli P-5101” for “|Staphylococcus aureus No. 50774 |”, “7” for “14”

The subject of the next test is Escherichia coli P-5101. The test is described as above. Set-up: species or system male mice (ddY). Particulars: P5101, 168 h, po, twice, about 5 minutes and 6 hours after intraperitoneal infection, observed 7 days. As to the method:
as §2, with “(3) Escherichia coli P-5101: Intraperitoneal” for “(1) Staphylococcus aureus No. 50774: Intravenous”, “9×10^6” for “5×10^8”, “trypto-soy broth with 4% mucin.” for “saline.”, “|Escherichia coli P-5101” for “|Staphylococcus aureus No. 50774 |”, “7” for “14”

For test [17], the system named is Gram-positive and Gram-negative bacteria including Pseudomonas aeruginosa. Kind of test: In vivo efficacy against systemic infections, overall. Set-up: species or system male mice (ddY). The settings on record: for therapeutic effect on systemic infections (in words): Gram-positive and Gram-negative bacteria; for therapeutic effect compared with Compound C (in words): systemic infections with Gram-negative bacteria including Pseudomonas aeruginosa. On the procedure: Compounds 1, 2 and C were each dissolved in deionized water or suspended in a 0.2% aqueous solution of CMC. Each of the solutions was orally administered to mice infected with each of test organisms under the conditions described below, and the medium effective doses (ED50) obtained are shown in Table II.
Male mice (ddY) weighing about 20 g
Twice, about 5 minutes and 6 hours after infection.

Where two headings read alike, the source gives them in different places. Bounds are passed on as bounds.

As for `CCn1cc(C(=O)O)c(=O)c2cc(F)c(N3CCC(N)C3)nc21.Cl` (stereo not shown) [Compound 1, 7-(3-Amino-1-pyrrolidinyl)-1-ethyl-6-fluoro-1,4-dihydro-4-oxo-1,8-naphthyridine-3-carboxylic acid hydrochloride], the MIC was 0.39 µg/mL in [1]; below 0.05 µg/mL in test [2]; 0.2 µg/mL in test [3] (NIHJJC2, Escherichia coli NIHJ JC-2, agar dilution, read-out: minimum inhibitory concentration (MIC)); below 0.05 µg/mL in the test on Escherichia coli P-140a; 0.2 µg/mL in test [4]; 0.39 µg/mL in the test on Proteus mirabilis P-2381. For the same compound, the MIC with Proteus morganii Kono worked out at 0.2 µg/mL; in [5], 0.78 µg/mL; in test [6] it was 0.78 µg/mL; in test [7], 0.1 µg/mL; in test [8] it was 0.1 µg/mL; in [9] it was 0.39 µg/mL. For the same compound, the MIC worked out at 0.1 µg/mL in the test with Shigella flexneri 2a; 0.1 µg/mL in test [10]; 0.39 µg/mL in test [11] (Staphylococcus aureus, NO.80, read-out: minimum inhibitory concentration (MIC)); 0.39 µg/mL in test [12]; 3.13 µg/mL in test [13]; 1.56 µg/mL in test [14]. Besides, the ED50 (as a rule, the dose that gives a 50% effect, or the effect in half of the subjects) in test [15] came to 3 mg/kg; in test [16] it was 21 mg/kg; with Escherichia coli P-5101 it was 1.7 mg/kg. The “therapeutic effect on systemic infections (in words)” value in test [17] is given as “potent therapeutic effects”. In addition, the “therapeutic effect compared with Compound C (in words)” value in [17] is “better therapeutic effects”.

Take `CCn1cc(C(=O)O)c(=O)c2cc(F)c(N3CCC(NC)C3)nc21.Cl` (stereo not shown) [Compound 2, 1-Ethyl-6-fluoro-1,4-dihydro-7-(3-methylamino-1-pyrrolidinyl)-4-oxo-1,8-naphthyridine-3-carboxylic acid hydrochloride]: the MIC was found to be 1.56 µg/mL in test [1]; 0.39 µg/mL in test [2]; 0.2 µg/mL in test [3] (Escherichia coli, NIHJJC2, read-out: minimum inhibitory concentration (MIC)); 0.1 µg/mL in the test with Escherichia coli P-140a; 0.39 µg/mL in test [4]; 1.56 µg/mL with Proteus mirabilis P-2381. The MIC in the test with Proteus morganii Kono stood at 0.39 µg/mL; in [5] it was 1.56 µg/mL; in test [6], 0.78 µg/mL; in test [7], 0.1 µg/mL; in test [8], 0.2 µg/mL; in test [9], 1.56 µg/mL. In addition, the MIC in the test on Shigella flexneri 2a was determined as 0.2 µg/mL; in test [10], 0.1 µg/mL; in test [11] (Staphylococcus aureus No. 80, agar dilution, read-out: minimum inhibitory concentration (MIC)), 0.78 µg/mL; in test [12], 0.78 µg/mL; in test [13], 6.25 µg/mL; in test [14], 3.13 µg/mL. Moreover, the ED50 in test [15] is 4.8 mg/kg; in [16] it was 42 mg/kg; with Escherichia coli P-5101, 1.4 mg/kg. For the same compound, the “therapeutic effect on systemic infections (in words)” value in [17] was “potent therapeutic effects”. The “therapeutic effect compared with Compound C (in words)” value in [17] is recorded as “better therapeutic effects”.
